According to US20160067221A1, “USE OF ERGOTHIONEINE FOR INDUCING ACTIVITY OF NRF2 IN CELL” (China Medical University, priority 2014, published 2016):

What was measured:
Format in all cases: cell-based, human
[1] = system: Nrf2 knockdown HaCaT cells; assay: MTT cell viability in siRNA-transfected HaCaT cells; conditions: 500 nM 24 hours, UVA 15 J/cm^2 4 hours
Experimental: (§1) The siRNA transfection includes steps as follows. The HaCaT cells are seeded in a 6-well plate with 4×10^5 cells/well and then maintained at 37° C. in the humidified atmosphere of 5% CO2 untill the time of the transfection. The day after reaching 40-60% confluence, the culture medium is replaced with 1 mL of FBS-free and antibiotic-free culture medium in each well, and the HaCaT cells are transfected with a siNrf2 or a control siRNA by using Lipofectamine 2000 (Invitrogen, U.S.A.) for 4-6 hours. After the incubation for 4-6 hours, the HaCaT cells are washed with the culture medium supplemented with 10% FBS 2-3 times, and then cultured in the culture medium supplemented with 10% FBS for 12-16 hours.
The HaCaT cells are incubated with 500 nM ergothioneine for 24 hours after the siRNA transfection.

[2] = system: Nrf2 knockdown HaCaT cells; assay: ROS generation in siRNA-transfected HaCaT cells; conditions: 500 nM 24 hours
Experimental: as §1
We further measure the amount of ROS generation in the HaCaT cells treated with the ergothioneine prior to 15 J/cm^2 UVA irradiation. The HaCaT cells are incubated with 500 nM ergothioneine for 24 hours after the siRNA transfection. After the incubation, the HaCaT cells are treated with or without the UVA irradiation (15 J/cm^2) for 4 hours, and then the HaCaT cells are subjected to detect the ROS generation.

[3] = system: antioxidant response element (ARE); assay: ARE luciferase gene reporter assay; conditions: HaCaT cells treated for 4 hours, vs untreated
Excerpt: The Nrf2 binds to the small Maf after translocating into the nucleus. […] Given that the ergothioneine treatment to the HaCaT cells can promote the Nrf2 translocating into the nucleus; this example next investigates whether the ARE transcriptional activity can be started by using a luciferase gene reporter assay. The luciferase gene reporter assay is transfected a plasmid containing the ARE gene and a luciferase gene into the HaCaT cells, wherein the luciferase gene is a reporter gene. An internal standard of the luciferase gene reporter assay is β-galactosidase, and a luminescence intensity is measured by Dual Light Kit (Applied Biosystems).

[4] = system: UVA-irradiated HaCaT cells; assay: LDH release (UVA-induced cell membrane damage); conditions: 125, 250, 500 nM 24 hours, then 15 J/cm^2 UVA, 4 hours
Experimental: Under normal physiological condition, a lactate dehydrogenase (LDH) is presented in the cytoplasm. The cell membranes are damaged or disrupted when the cells are attacked by excessive ROS. Accordingly, the intracellular LDH releases into the culture medium. Therefore, a detection amount of LDH release is an indicator of a cell membrane damaged condition. The HaCaT cells are seeded in a 12-well plate with 1×10^5 cells/well and then maintained at 37° C. in the humidified atmosphere of 5% CO2 until the HaCaT cells are adhered in the next day. […] After incubation, the HaCaT cells are washed with PBS three times and resuspended in fresh phenol red-free DMEM supplemented with 10% FBS. Then, the HaCaT cells are exposed to the UVA (15 J/cm^2) for 4 hours. The culture medium is taken from the well, and then centrifuged at 400×g for 5 minutes by using a high speed centrifuge. After the centrifugation, 50 μL of the supernatant is taken and added into the 96-well microplate, and the 50 μL of a substrate mixture is added in each well to act at room temperature for 20 minutes in the dark. Then, 50 μl. of a stopping solution (1N HCl) is added in each well to stop the reaction, and then the absorbance at 490 nm is measured.

Nrf2 = assay: Western blot in Nrf2 knockdown HaCaT cells (siRNA transfection); conditions: Nrf2 siRNA transfected cells, 500 nM ergothioneine 24 hours
Excerpt: The Nrf2 is an important transcription factor, the downstream antioxidant enzymes are regulated by the Nrf2 transcription gene. To examine protective effects of the ergothioneine on the HaCaT cells indeed through the Nrf2 activation, we developed an Nrf2 gene knockdown model in the HaCaT cells by a siRNA transfection in this example. Then, the expression of the downstream antioxidant gene is observed to investigate whether the protective properties of the ergothioneine will be affected.
as §1
After the siRNA transfection, the HaCaT cells are treated with 500 nM ergothioneine for 24 hours. After the ergothioneine treatment, the HaCaT cells are subjected to analyses of the protein express on of the Nrf2 in 1 hour post-treatment and the protein expressions of HO-1 γ-GCLC and NQO-1 in 4 hours post-treatment by the Western blot analysis. FIG. 13-(A) illustrates the effect of the ergothioneine on protein expression of the Nrf2 in Nrf2 knockdown HaCaT cells by using the siRNA transfection.

[5] = system: UVA-irradiated HaCaT cells; assay: Western blot of apoptosis-related proteins (Caspase-3, Caspase-9, Bax, Bcl-2); conditions: 125-500 nM 24 hours prior to UVA 15 J/cm^2, 4 hours
Experimental: The apoptosis can induce DNA double-strand breaks to generate a DNA fragment, To examine the effect of the ergothioneine on the UVA-induced apoptosis, an apoptotic cell death is measured using a terminal deoxyucleotidyl transferase-meditated dUTP-fluorescein nick end-labeking (TUNEL) assay, and protein expressions of apoptosis-related proteins, Caspase-3, Caspase-9, Bax and Bcl-2, are measured using a Western blot analysis. Therefore, the aforementioned methods in this example can analyze whether pretreating with the ergothioneine improves the UVA-induced apoptosis. […] After incubation, the HaCaT cells are exposed to the UVA (15 J/cm^2), and then incubated for 4 hours. Then, the protein expressions of Caspase-3, Caspase-9, Bax and Bcl-2 are measured using the Western blot analysis. FIG. 6 illustrates the effect of the ergothioneine on the protein expressions of apoptosis-related proteins of the UVA-irradiated HaCaT cells. FIG. 6-(A) represents the Western blot analysis results. FIG. 6-(B) is the quantitative diagram of the protein expressions of Caspase-3 and Caspase-9. FIG. 6-(C) is the quantitative diagram of a Bax/Bcl-2 ratio.

In the case of `C[N+](C)(C)[C@@H](Cc1c[nH]c(=S)[nH]1)C(=O)[O-]` [ergothioneine, 2-mercapto histidine trimethylbetain], the UVA-induced cell death ([1]; Nrf2 siRNA) is reported as “unable to ameliorate the UVA-induced cell death”, the UVA-induced cell death ([1]; control siRNA) is reported as “able to reduce a UVA-induced cell death” and the ROS generation ([2]; Nrf2 siRNA, UVA 15 J/cm^2) is reported as “unable to decrease the ROS generation”. For the same compound, the ROS generation ([2]; control siRNA, UVA 15 J/cm^2, vs UVA alone) was “significantly reduced”, the “luciferase activity derived from the ARE promoter” value [3] was “increased” and the LDH release [4] was “inhibits the LDH release in a dose-dependent manner”. The “expression of HO-1” value (Nrf2) was “not shown the increased expression”, the “expression of NQO-1” value (Nrf2) was “not shown the increased expression” and the “expression of γ-GCLC” value (Nrf2) was “not shown the increased expression”. For the same compound, the Bax/Bcl-2 ratio [5] was “significantly reduced”, the “protein expression of Caspase-3” value [5] was “significantly reduced” and the “protein expression of Caspase-9” value [5] was “significantly reduced”.
